pIC50: −log10 of the molar value.
Target: Met kinase (Homo sapiens, UniProt P08581)
Assay: Met kinase inhibition (cell)
Format: cell-based

Met kinase, sequence (P08581 25-1390): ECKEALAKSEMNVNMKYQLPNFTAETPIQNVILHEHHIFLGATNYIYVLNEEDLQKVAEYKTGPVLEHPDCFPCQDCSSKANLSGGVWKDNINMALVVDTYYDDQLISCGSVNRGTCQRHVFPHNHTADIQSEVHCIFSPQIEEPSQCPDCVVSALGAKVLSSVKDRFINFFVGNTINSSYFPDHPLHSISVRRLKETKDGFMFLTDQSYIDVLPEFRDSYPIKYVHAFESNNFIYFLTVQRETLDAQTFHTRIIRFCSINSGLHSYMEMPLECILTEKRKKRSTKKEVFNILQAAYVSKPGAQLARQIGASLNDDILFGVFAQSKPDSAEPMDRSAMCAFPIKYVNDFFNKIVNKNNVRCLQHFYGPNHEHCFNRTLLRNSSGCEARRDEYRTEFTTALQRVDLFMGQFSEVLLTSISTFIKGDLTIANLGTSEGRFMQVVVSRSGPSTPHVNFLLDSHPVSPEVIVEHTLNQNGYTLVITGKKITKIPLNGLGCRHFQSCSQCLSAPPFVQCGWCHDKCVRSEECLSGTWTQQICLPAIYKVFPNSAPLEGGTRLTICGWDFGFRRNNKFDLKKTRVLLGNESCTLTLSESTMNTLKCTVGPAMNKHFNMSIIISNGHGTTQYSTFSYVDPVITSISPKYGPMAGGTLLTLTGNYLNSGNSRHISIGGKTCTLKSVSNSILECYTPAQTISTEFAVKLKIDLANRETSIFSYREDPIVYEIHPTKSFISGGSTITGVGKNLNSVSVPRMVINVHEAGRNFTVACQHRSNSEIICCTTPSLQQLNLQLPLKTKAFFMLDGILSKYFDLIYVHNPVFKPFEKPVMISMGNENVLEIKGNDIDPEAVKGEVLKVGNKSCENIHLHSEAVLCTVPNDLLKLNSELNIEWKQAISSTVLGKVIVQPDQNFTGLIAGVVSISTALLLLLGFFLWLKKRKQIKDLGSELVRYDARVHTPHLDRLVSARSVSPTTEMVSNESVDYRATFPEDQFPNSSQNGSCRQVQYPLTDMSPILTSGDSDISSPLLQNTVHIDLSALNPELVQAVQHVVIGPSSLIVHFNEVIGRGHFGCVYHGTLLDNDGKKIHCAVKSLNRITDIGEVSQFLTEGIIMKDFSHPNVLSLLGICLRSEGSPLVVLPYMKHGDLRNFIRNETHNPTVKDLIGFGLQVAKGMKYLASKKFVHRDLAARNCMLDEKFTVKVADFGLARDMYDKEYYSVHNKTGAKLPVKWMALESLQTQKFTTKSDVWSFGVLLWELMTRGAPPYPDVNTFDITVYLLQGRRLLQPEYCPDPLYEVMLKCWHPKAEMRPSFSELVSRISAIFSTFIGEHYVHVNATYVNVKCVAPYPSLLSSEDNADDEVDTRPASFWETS

SMILES	pIC50
Cn1cc(-c2ccc3nnc(Cc4cccc(-c5ncc(-c6cnn(CCN7CCCC7)c6)cn5)c4)n3n2)cn1 [Compound A2, 6-(1-methyl-1H-pyrazol-4-yl)-3-(3-{5-[1-(2-pyrrolidin-1-yl-ethyl)-1H-pyrazol-4-yl]pyrimidin-2-yl}benzyl)-1,2,4-triazolo[4,3-b]pyridazine]	7.00 to 9.00
Cn1cc(-c2ccc3nnc(Cc4cccc(-c5ncc(O)cn5)c4)n3n2)cn1 [Compound A30, 2-{3-[6-(1-methyl-1H-pyrazol-4-yl)-1,2,4-triazolo[4,3-b]pyridazin-3-yl-methyl]phenyl}pyrimidin-5-ol]	5.00 to 7.00
Cn1cc(-c2ccc3nnc(Cc4cccc(-c5ncc(OCCO)cn5)c4)n3n2)cn1 [Compound A34, 2-(2-{3-[6-(1-methyl-1H-pyrazol-4-yl)-1,2,4-triazolo[4,3-b]pyridazin-3-ylmethyl]-phenyl}pyrimidin-5-yloxy)ethanol]	7.00 to 9.00
Cn1cc(-c2ccc3nnc(C(F)(F)c4cccc(-c5ncc(OCCO)cn5)c4)n3n2)cn1 [Compound A32, 2-[2-(3-{difluoro-[6-(1-methyl-1H-pyrazol-4-yl)-1,2,4-triazolo[4,3-b]pyridazin-3-yl]methyl}phenyl)pyrimidin-5-yloxy]ethanol]	7.00 to 9.00
COCCOc1cnc(-c2cccc(C(F)(F)c3nnc4ccc(-c5cnn(C)c5)nn34)c2)nc1 [Compound A31, 3-(difluoro-{3-[5-(2-methoxyethoxy)pyrimidin-2-yl]phenyl}methyl)-6-(1-methyl-1H-pyrazol-4-yl)-1,2,4-triazolo[4,3-b]pyridazine]	7.00 to 9.00

The remaining lines, values ahead:

pIC50	SMILES
7.00 to 9.00	Cc1cnc(-c2cccc(Cc3nnc4ccc(-c5cnn(CCO)c5)nn34)c2)nc1 [Compound A44, 2-(4-{3-[3-(5-methyl-pyrimidin-2-yl)benzyl]-1,2,4-triazolo[4,3-b]pyridazin-6-yl}pyrazol-1-yl)ethanol]
7.00 to 9.00	CN1CCC(COc2cnc(-c3cccc(C(F)(F)c4nnc5ccc(-c6cnn(C)c6)nn45)c3)nc2)CC1 [Compound A42, 3-(difluoro-{3-[5-(1-methylpiperidin-4-ylmethoxy)pyrimidin-2-yl]-phenyl}methyl)-6-(1-methyl-1H-pyrazol-4-yl)-1,2,4-triazolo[4,3-b]pyridazine]
7.00 to 9.00	Cc1ccc2nnc(C(F)(F)c3cccc(-c4ncc(OCCN5CCOCC5)cn4)c3)n2n1 [Compound A28, 3-(difluoro-{3-[5-(2-morpholin-4-ylethoxy)pyrimidin-2-yl]-phenyl}methyl)-6-methyl-1,2,4-triazolo[4,3-b]pyridazine]
7.00 to 9.00	COc1cnc(-c2cccc(Cc3nnc4ccc(-c5cnn(C)c5)nn34)c2)nc1 [Compound A35, 3-[3-(5-methoxypyrimidin-2-yl)benzyl]-6-(1-methyl-1H-pyrazol-4-yl)-1,2,4-triazolo[4,3-b]pyridazine]
5.00 to 7.00	COCCOc1cnc(-c2cccc(Cc3nnc4ccc(-c5cnn(C)c5)nn34)c2)nc1 [Compound A33, 3-{3-[5-(2-methoxyethoxy)pyrimidin-2-yl]benzyl}-6-(1-methyl-1H-pyrazol-4-yl)-1,2,4-triazolo[4,3-b]pyridazine]
7.00 to 9.00	COCCCOc1cnc(-c2cccc(Cc3nnc4ccc(-c5cnn(C)c5)nn34)c2)nc1 [Compound A36, 3-{3-[5-(3-methoxypropoxy)pyrimidin-2-yl]benzyl}-6-(1-methyl-1H-pyrazol-4-yl)-1,2,4-triazolo[4,3-b]pyridazine]
7.00 to 9.00	CN1CCN(CCOc2cnc(-c3cccc(Cc4nnc5ccc(-c6cnn(C)c6)nn45)c3)nc2)CC1 [Compound A37, 3-(3-{5-[2-(4-methylpiperazin-1-yl)ethoxy]pyrimidin-2-yl}benzyl)-6-(1-methyl-1H-pyrazol-4-yl)-1,2,4-triazolo[4,3-b]pyridazine]

Reference: patent US8497266B2, “3-(3-pyrimidin-2-ylbenzyl)-1,2,4-triazolo[4,3-b]pyridazine derivatives as MET kinase inhibitors” (Merck Patent GmbH, priority 2008, dated 2013)
